Measurements from ChEMBL document CHEMBL5257035, “Nucleoside Derived Antibiotics to Fight Microbial Drug Resistance: New Utilities for an Established Class of Drugs?” (J Med Chem, 2016).
≈ marks a conversion by molar mass, not a printed value.

Tests used:
Methionine--tRNA ligase = Methionine--tRNA ligase (Escherichia coli K-12, UniProt P00959); test: Inhibition of Escherichia coli K12 methionyl tRNA synthetase
Bacillus cereus = test: Antibacterial activity against Bacillus cereus ATCC 11778 assessed as bacterial growth inhibition; assay type: functional
[1] = Binding affinity to Escherichia coli methionyl adenylate synthetase
Escherichia coli = test: Antibacterial activity against Escherichia coli K12 assessed as bacterial growth inhibition measured after 24 hrs by micro broth dilution method; assay type: functional
[2] = Inhibition of GMP synthase (unknown origin); design: species or system Homo sapiens
Bacillus subtilis [3] = test: Antibacterial activity against Bacillus subtilis ATCC 6633 assessed as bacterial growth inhibition by agar diffusion method; assay type: functional
[4] = test system: Mycolicibacterium smegmatis; test: Antimycobacterial activity against Mycobacterium smegmatis SG 125A assessed as inhibition of bacterial growth; assay type: functional
[5] = test system: Mycobacterium tuberculosis; test: Antimycobacterial activity against Mycobacterium tuberculosis H37Rv assessed as inhibition of bacterial growth; assay type: functional
[6] = test system: Mycobacterium tuberculosis; test: Antimycobacterial activity against Mycobacterium tuberculosis H37Rv assessed as reduction in microbial growth after 7 days by alamar blue assay; assay type: functional, organism-based; details: 168 h
[7] = molecular target: Hypoxanthine-guanine phosphoribosyltransferase (Homo sapiens, UniProt P00492); test: Binding affinity to human HGPRT assessed as inhibition of constant
[8] = test system: Mycobacterium tuberculosis; test: Antimycobacterial activity against Mycobacterium tuberculosis assessed as reduction in microbial growth; assay type: functional
Bacillus subtilis [9] = test: Antibacterial activity against Bacillus subtilis ATCC 6633 assessed as reduction in bacterial cell growth; assay type: functional
[10] = Toxicity in rat; details: in vivo
Moraxella catarrhalis = test: Antibacterial activity against Moraxella catarrhalis assessed as bacterial growth inhibition incubated for 24 hrs by micro-broth dilution method; assay type: functional
[11] = test system: Staphylococcus epidermidis; test: Antibacterial activity against Staphylococcus epidermidis ATCC 12228 assessed as microbial growth inhibition incubated for 24 hrs; assay type: functional
Streptococcus pneumoniae = test: Antibacterial activity against Streptococcus pneumoniae B1 assessed as bacterial growth inhibition incubated for 24 hrs by micro-broth dilution method; assay type: functional
Staphylococcus aureus = test: Antibacterial activity against Staphylococcus aureus ATCC 25923 assessed as bacterial growth inhibition measured after 18 hrs by CLSI protocol based two-fold serial microdilution method; assay type: functional
Enterococcus faecalis = test: Antibacterial activity against Enterococcus faecalis assessed as bacterial growth inhibition incubated for 24 hrs by micro-broth dilution method; assay type: functional
Bacillus subtilis [12] = test: Antibacterial activity against Bacillus subtilis assessed as bacterial growth inhibition incubated for 24 hrs by micro-broth dilution method; assay type: functional
Haemophilus influenzae = test: Antibacterial activity against Haemophilus influenzae assessed as bacterial growth inhibition incubated for 24 hrs by micro-broth dilution method; assay type: functional
Enterococcus faecium = test: Antibacterial activity against Enterococcus faecium assessed as bacterial growth inhibition incubated for 24 hrs by micro-broth dilution method; assay type: functional
Klebsiella pneumoniae [13] = test: Antibacterial activity against Klebsiella pneumoniae assessed as bacterial growth inhibition incubated for 24 hrs by micro-broth dilution method; assay type: functional
[14] = test system: Staphylococcus saprophyticus; test: Antibacterial activity against Staphylococcus saprophyticus ATCC 15305 assessed as bacterial growth inhibition after 20 hrs by CLSI based-broth microdilution method; assay type: functional
Streptococcus pyogenes = test: Antibacterial activity against Streptococcus pyogenes assessed as bacterial growth inhibition incubated for 24 hrs by micro-broth dilution method; assay type: functional
Glutamine--tRNA ligase = Glutamine--tRNA ligase (Escherichia coli (strain K12), UniProt P00962); test: Binding affinity to Escherichia coli K12 glutaminyl-tRNA synthetase assessed as inhibition constant
[15] = Inhibition of Escherichia coli topoisomerase 4
Klebsiella pneumoniae [16] = test: Antibacterial activity against Klebsiella pneumoniae assessed as bacterial growth inhibition; assay type: functional

Methionine--tRNA ligase, sequence (P00959 whole entry): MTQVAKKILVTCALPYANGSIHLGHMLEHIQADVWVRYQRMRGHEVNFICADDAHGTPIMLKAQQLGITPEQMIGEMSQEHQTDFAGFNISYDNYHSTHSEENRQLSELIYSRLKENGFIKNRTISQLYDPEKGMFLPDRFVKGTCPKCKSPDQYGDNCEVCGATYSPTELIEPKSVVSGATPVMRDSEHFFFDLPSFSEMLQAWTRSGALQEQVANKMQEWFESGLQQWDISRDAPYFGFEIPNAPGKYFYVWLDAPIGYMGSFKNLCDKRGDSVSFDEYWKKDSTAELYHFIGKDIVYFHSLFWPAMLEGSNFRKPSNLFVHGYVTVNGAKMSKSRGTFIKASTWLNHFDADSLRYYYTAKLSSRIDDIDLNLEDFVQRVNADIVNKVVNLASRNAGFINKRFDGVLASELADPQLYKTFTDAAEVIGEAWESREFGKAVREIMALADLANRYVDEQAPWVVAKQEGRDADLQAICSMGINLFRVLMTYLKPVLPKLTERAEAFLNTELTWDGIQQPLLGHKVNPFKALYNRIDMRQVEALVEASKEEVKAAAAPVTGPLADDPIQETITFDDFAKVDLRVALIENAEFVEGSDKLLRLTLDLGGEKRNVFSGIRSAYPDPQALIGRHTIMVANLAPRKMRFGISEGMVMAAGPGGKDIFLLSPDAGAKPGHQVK
Hypoxanthine-guanine phosphoribosyltransferase, sequence (P00492 whole entry): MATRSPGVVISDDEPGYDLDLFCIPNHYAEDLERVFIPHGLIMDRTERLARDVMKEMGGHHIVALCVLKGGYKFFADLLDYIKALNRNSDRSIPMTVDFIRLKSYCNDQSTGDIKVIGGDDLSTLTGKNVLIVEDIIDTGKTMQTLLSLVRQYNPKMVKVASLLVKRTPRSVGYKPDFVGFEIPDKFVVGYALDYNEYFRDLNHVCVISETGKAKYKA
Glutamine--tRNA ligase, sequence (P00962 whole entry): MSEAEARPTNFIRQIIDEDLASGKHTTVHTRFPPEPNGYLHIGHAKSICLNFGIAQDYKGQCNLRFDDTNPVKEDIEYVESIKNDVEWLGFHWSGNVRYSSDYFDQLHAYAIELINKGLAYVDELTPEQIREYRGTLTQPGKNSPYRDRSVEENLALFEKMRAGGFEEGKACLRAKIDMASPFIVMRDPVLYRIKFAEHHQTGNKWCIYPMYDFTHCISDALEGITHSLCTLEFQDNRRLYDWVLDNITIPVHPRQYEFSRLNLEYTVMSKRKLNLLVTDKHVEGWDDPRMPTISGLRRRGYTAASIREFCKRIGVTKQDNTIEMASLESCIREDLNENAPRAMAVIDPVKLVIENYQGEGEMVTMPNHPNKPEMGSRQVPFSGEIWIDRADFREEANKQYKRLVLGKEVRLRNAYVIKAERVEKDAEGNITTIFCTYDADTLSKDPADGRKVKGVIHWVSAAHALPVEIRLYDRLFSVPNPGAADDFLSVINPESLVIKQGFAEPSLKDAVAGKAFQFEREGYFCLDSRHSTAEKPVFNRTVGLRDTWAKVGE

`CCC(C)C(N)C(=O)NS(=O)(=O)OC[C@H]1O[C@@H](n2cnc3c(N)nc(I)nc32)[C@H](O)[C@@H]1O` (stereo partly drawn) gave an IC50 (Methionine--tRNA ligase) of 14 nM.
`CSCC[C@H](N)C(=O)OC[C@H]1O[C@@H](n2cnc3c(N)ncnc32)[C@H](O)[C@@H]1O` gave an MIC (Bacillus cereus) of 32 µg/mL (≈ 80.3 µM), a Ki [1] of 10900 nM and an MIC (Escherichia coli) of 0.5 µg/mL (≈ 1.25 µM).
For `NC(=O)c1ncn([C@@H]2O[C@H](CO)[C@@H](O)[C@H]2O)c1O` [MIZORIBINE], the Ki [2] was 100000 nM.
With `CCC(C)CCCCCCCC/C=C/C(=O)N[C@H]1[C@H](O[C@@H]2O[C@@H](CO)[C@H](O)[C@H](O)[C@H]2NC(C)=O)O[C@H](C[C@@H](C)[C@H]2O[C@@H](N3CCC(=O)NC3=O)[C@H](O)[C@@H]2O)[C@H](O)[C@@H]1O` (stereo partly drawn) the MIC (Bacillus subtilis [3]) was 0.31 µg/mL (≈ 0.373 µM), the MIC [4] was 3.1 µg/mL (≈ 3.73 µM) and the MIC [5] was 10 µg/mL (≈ 12 µM).
For `CCOC(=O)[C@H](Cc1ccccc1)NP(=O)(N[C@@H](Cc1ccccc1)C(=O)OCC)OCOCCN`, the IC50 [6] was 5000 nM, the Ki [7] was 690 nM and the MIC [8] was 4.5 µM.
`CCC(C)CCCCCCCCCCC(=O)N[C@H]1[C@H](O[C@@H]2O[C@@H](CO)[C@H](O)[C@H](O)[C@H]2NC(C)=O)O[C@H](C[C@@H](C)[C@H]2O[C@@H](n3ccc(=O)[nH]c3=O)[C@H](O)[C@@H]2O)[C@H](O)[C@@H]1O` (stereo partly drawn) showed an MIC (Bacillus subtilis [9]) of 0.1 µg/mL (≈ 0.12 µM), an MIC (Bacillus subtilis [3]) of 0.1 µg/mL (≈ 0.12 µM) and an LD50 [10] of 0.137 mg/kg.
For `CCC(C)C(N)C(=O)NS(=O)(=O)OC[C@H]1O[C@@H](CCn2nnc(-c3ccc(Oc4ccccc4)cc3)n2)[C@H](O)[C@@H]1O` (stereo partly drawn), the MIC (Moraxella catarrhalis) was 2 µg/mL (≈ 3.39 µM), the MIC [11] was 2 µg/mL (≈ 3.39 µM) and the MIC (Streptococcus pneumoniae) was 2 µg/mL (≈ 3.39 µM). The MIC (Staphylococcus aureus) was 2 µg/mL (≈ 3.39 µM), the MIC (Enterococcus faecalis) was 2 µg/mL (≈ 3.39 µM) and the MIC (Bacillus subtilis [12]) was 2 µg/mL (≈ 3.39 µM). For the same molecule, the MIC (Haemophilus influenzae) was 2 µg/mL (≈ 3.39 µM), the MIC (Enterococcus faecium) was 2 µg/mL (≈ 3.39 µM) and the MIC (Klebsiella pneumoniae [13]) was 2 µg/mL (≈ 3.39 µM). For the same molecule, the MIC [14] was 2 µg/mL (≈ 3.39 µM) and the MIC (Streptococcus pyogenes) was 2 µg/mL (≈ 3.39 µM).
For `NC(=O)CCC(N)COP(=O)(O)OC[C@H]1O[C@@H](n2cnc3c(N)ncnc32)[C@H](O)[C@@H]1O` (stereo partly drawn), the Ki (Glutamine--tRNA ligase) was 280 nM.
With `CCC(C)C(N)C(=O)NS(=O)(=O)OC[C@H]1O[C@@H](CCn2nnc(-c3ccccc3)n2)[C@H](O)[C@@H]1O` (stereo partly drawn) the Ki [15] was 1.3 µg/mL (≈ 2.61 µM).
With `Cc1cn([C@H]2C[C@H](N=[N+]=[N-])[C@@H](COC(=O)C(=O)N[C@@H](CC(C)C)C(=O)O)O2)c(=O)[nH]c1=O` the MIC (Klebsiella pneumoniae [16]) was 0.125 µg/mL (≈ 0.276 µM).
